Measurements taken from the supplement of paper PMC4862054.
Where “and” joins values, the source holds several entries; their conditions need not be identical. Equal entries are not always repeated.

Columns and labels:
Conditions in all cases: incubation time: 72 h
BT-549 [1] = assay: normalised response (% of control), CellTiter-Glo; higher = more viable cells (100 = DMSO, 0 = benzethonium chloride kill control)
Procedure, shortened: (§1)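 Breast cancer cell lines, seeded at 20 µl suspension per well, were incubated for 72 h in 384-well plates containing compound at 5 concentrations. These concentrations rose in 10-fold steps over a 10,000-fold range set for each compound. CellTox Green fluorescence (485/520 nm) was read, then CellTiter-Glo luminescence after 10 min at room temperature, and each plate was normalised to 0.1 % DMSO (100) and a positive kill control (0). Values are normalised signals, each at one concentration.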

CAL-148 [2] = assay: as above
Procedure, shortened: as §1

HCC1143 [3] = assay: as above
Procedure, shortened: as §1

SK-BR-3 [4] = assay: as above
Procedure, shortened: as §1

BT-474 [5] = assay: as above
Procedure, shortened: as §1

HCC1599 [6] = assay: as above
Procedure, shortened: as §1

MDA-MB-231 [7] = assay: as above
Procedure, shortened: as §1

MDA-MB-436 [8] = assay: as above
Procedure, shortened: as §1

CAL-85-1 [9] = assay: as above
Procedure, shortened: as §1

DU-4475 [10] = assay: as above
Procedure, shortened: as §1

MDA-MB-453 [11] = assay: as above
Procedure, shortened: as §1

Hs578T [12] = assay: as above
Procedure, shortened: as §1

MFM-223 [13] = assay: as above
Procedure, shortened: as §1

MDA-MB-468 [14] = assay: as above
Procedure, shortened: as §1

CAL-120 [15] = assay: as above
Procedure, shortened: as §1

CAL-51 [16] = assay: as above
Procedure, shortened: as §1

HCC1937 [17] = assay: as above
Procedure, shortened: as §1

MCF-10A = assay: as above
Procedure, shortened: as §1

HDQ-P1 [18] = assay: as above
Procedure, shortened: as §1

BT-549 [19] = assay: normalised viability (% of control), CellTiter-Blue; higher = more viable cells (100 = DMSO, 0 = benzethonium chloride kill control)
Procedure, shortened: (§2)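 Compound dissolved in 5 µl medium was pre-loaded into 384-well plates, and breast cancer cell lines in 20 µl suspension were seeded on top and incubated 72 h. After adding 2.5 µl CellTiter-Blue reagent for 2 h at 37 °C, fluorescence was read at 560/590 nm. Plates were normalised to vehicle (100) and a positive kill control (0), with Z'-factor quality control. Each value is normalised viability at a single listed concentration from the series.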

CAL-148 [20] = assay: as above
Procedure, shortened: as §2

HCC1143 [21] = assay: as above
Procedure, shortened: as §2

SK-BR-3 [22] = assay: as above
Procedure, shortened: as §2

BT-474 [23] = assay: as above
Procedure, shortened: as §2

HCC1599 [24] = assay: as above
Procedure, shortened: as §2

MDA-MB-231 [25] = assay: as above
Procedure, shortened: as §2

MDA-MB-436 [26] = assay: as above
Procedure, shortened: as §2

CAL-85-1 [27] = assay: as above
Procedure, shortened: as §2

DU-4475 [28] = assay: as above
Procedure, shortened: as §2

MDA-MB-453 [29] = assay: as above
Procedure, shortened: as §2

Hs578T [30] = assay: as above
Procedure, shortened: as §2

MFM-223 [31] = assay: as above
Procedure, shortened: as §2

MDA-MB-468 [32] = assay: as above
Procedure, shortened: as §2

CAL-120 [33] = assay: as above
Procedure, shortened: as §2

CAL-51 [34] = assay: as above
Procedure, shortened: as §2

HCC1937 [35] = assay: as above
Procedure, shortened: as §2

HDQ-P1 [36] = assay: as above
Procedure, shortened: as §2

Row | SMILES | normalised response (BT-549 [1]) [%] | normalised response (CAL-148 [2]) [%] | normalised response (HCC1143 [3]) [%] | normalised response (SK-BR-3 [4]) [%] | normalised response (BT-474 [5]) [%] | normalised response (HCC1599 [6]) [%] | normalised response (MDA-MB-231 [7]) [%] | normalised response (MDA-MB-436 [8]) [%] | normalised response (CAL-85-1 [9]) [%] | normalised response (DU-4475 [10]) [%] | normalised response (MDA-MB-453 [11]) [%] | normalised response (Hs578T [12]) [%] | normalised response (MFM-223 [13]) [%] | normalised response (MDA-MB-468 [14]) [%] | normalised response (CAL-120 [15]) [%] | normalised response (CAL-51 [16]) [%] | normalised response (HCC1937 [17]) [%] | normalised response (MCF-10A) [%] | normalised response (HDQ-P1 [18]) [%] | normalised viability (BT-549 [19]) | normalised viability (CAL-148 [20]) | normalised viability (HCC1143 [21]) | normalised viability (SK-BR-3 [22]) | normalised viability (BT-474 [23]) | normalised viability (HCC1599 [24]) | normalised viability (MDA-MB-231 [25]) | normalised viability (MDA-MB-436 [26]) | normalised viability (CAL-85-1 [27]) | normalised viability (DU-4475 [28]) | normalised viability (MDA-MB-453 [29]) | normalised viability (Hs578T [30]) | normalised viability (MFM-223 [31]) | normalised viability (MDA-MB-468 [32]) | normalised viability (CAL-120 [33]) | normalised viability (CAL-51 [34]) | normalised viability (HCC1937 [35]) | normalised viability (HDQ-P1 [36]) [%]
1 | COc1cc2c(Oc3ccc(NC(=O)C4(C(=O)Nc5ccc(F)cc5)CC4)cc3F)ccnc2cc1OCCCN1CCOCC1 [Foretinib] (0.1 nM) | 104 | 109 | 99 | 107 | 105 | 93.4 | 99.7 | 107 | 100 | 102 | 109 | 89.5 | 102 | 108 | 100 | 74.1 | 99.2 | 97.2 | 105 | 94.6% | 107% | 100% | 89% | 99.9% | 98.9% | 102% | 95.8% | 90.2% | 100% | 95% | 110% | 97% | 101% | 92.1% | 91.8% | 101% | 75.8
2 | NC(=O)NO [Hydroxyurea] (10 nM) | 108 | 101 | 104 | 113 | 98.6 | 101 | 98.3 | 90.1 | 98.5 | 106 | 110 | 101 | 105 | 103 | 96.7 | 74.9 | 91.6 | 110 | 97.3 | 99.2% | 107% | 102% | 52% | 97.2% | 113% | 101% | 109% | 109% | 123% | 105% | 107% | 104% | 112% | 98.9% | 100% | 95.8% | 116
3 | O=NN(CCCl)C(=O)NC1CCCCC1 [Lomustine] (1 nM) | 94.2 | 94.4 | 105 | 104 | 101 | 105 | 97.5 | 98.2 | 97.6 | 93.9 | 108 | 106 | 97.5 | 99.3 | 99.1 | 91.6 | 94.9 | 107 | 97.2 | 107% | 107% | 95.2% | 93.6% | 88% | 109% | 97.3% | 109% | 98.8% | 102% | 114% | 100% | 83.4% | 100% | 91.6% | 108% | 86.3% | 110
4 | O=C(O)CC[C@H]1CC[C@@](c2cc(F)ccc2F)(S(=O)(=O)c2ccc(Cl)cc2)CC1 [MK-0752] (0.1 nM) | 103 | 101 | 102 | 111 | 101 | 79.3 | 104 | 101 | 99.5 | 97.5 | 116 | 98.7 | 106 | 102 | 95.5 | 68.8 | 100 | 116 | 97.8 | 117% | 106% | 99.7% | 94.4% | 119% | 103% | 99.2% | 109% | 100% | 106% | 117% | 106% | 102% | 96.7% | 88.8% | 98.2% | 84.8% | 99.9
5 | NC1(c2ccc(-c3nc4ccn5c(=O)[nH]nc5c4cc3-c3ccccc3)cc2)CCC1 [MK-2206] (0.1 nM) | 99.5 | 110 | 102 | 110 | 101 | 87.8 | 106 | 98.3 | 98.7 | 101 | 98.9 | 97.2 | 112 | 103 | 112 | 87.9 | 100 | 107 | 103 | 114% | 106% | 118% | 107% | 115% | 94.9% | 106% | 108% | 108% | 118% | 105% | 107% | 100% | 111% | 106% | 99.9% | 129% | 113
6 | NC(=O)c1cccc2cn(-c3ccc([C@@H]4CCCNC4)cc3)nc12 [MK-4827] (1 nM) | 102 | 115 | 105 | 112 | 113 | 110 | 101 | 96.9 | 102 | 98.1 | 99.3 | 103 | 101 | 104 | 101 | 99.9 | 102 | 102 | 100 | 112% | 105% | 92.1% | 95.5% | 121% | 97.1% | 96% | 80.8% | 82.1% | 102% | 97.8% | 94.2% | 92.2% | 91.7% | 90.2% | 108% | 97.3% | 85.9
7 | O=C(c1cc(Cc2n[nH]c(=O)c3ccccc23)ccc1F)N1CCN(C(=O)C2CC2)CC1 [Olaparib] (1 nM) | 103 | 93 | 93.1 | 102 | 96.7 | 101 | 99.1 | 104 | 103 | 102 | 103 | 99.9 | 96.7 | 99 | 92.4 | 114 | 90.5 | 92.8 | 95.9 | 86% | 87.1% | 88.4% | 91.2% | 85.8% | 89.9% | 84.8% | 113% | 87.6% | 94.1% | 92.7% | 99.7% | 91% | 95.3% | 73.8% | 103% | 102% | 96.9
8 | CO[C@H](C(=O)[C@@H](O)[C@@H](C)O)[C@@H]1Cc2cc3cc(O[C@H]4C[C@@H](O[C@@H]5C[C@@H](O)[C@H](O)[C@@H](C)O5)[C@H](O)[C@@H](C)O4)c(C)c(O)c3c(O)c2C(=O)[C@H]1O[C@H]1C[C@@H](O[C@@H]2C[C@@H](O)[C@@H](O[C@@H]3C[C@](C)(O)[C@H](O)[C@@H](C)O3)[C@@H](C)O2)[C@H](O)[C@@H](C)O1 [Plicamycin] (1 nM) | 102 | 112 | 92.6 | 108 | 104 | 102 | 99.8 | 95 | 102 | 107 | 108 | 102 | 106 | 113 | 113 | 92.5 | 96.9 | 103 | 101 | 93% and 90.1% | 111% and 108% | 96.8% and 82.4% | 93.3% and 88.4% | 106% and 92.2% | 101% and 107% | 94% and 98.7% | 108% and 92.6% | 87.5% and 82.1% | 112% and 109% | 95.5% and 109% | 113% and 92.7% | 91.7% and 84.2% | 96.7% and 101% | 82.5% and 79.1% | 102% and 112% | 97.7% and 85% | 111
